Columns and labels:
Experiment in all cases: OncoPanel cytotoxicity assay
Type in all cases: cell-based
KHOS-240S = details: Homo sapiens, 72 hour incubation
Description: (§1) Cells were grown in RPMI 1640, 10% FBS, 2 mM L-alanyl-L-Glutamine, 1 mM Na Pyruvate, or a special medium in a humidified atmosphere of 5% CO2 at 37° C. Cells were seeded into 384-well plates and incubated in a humidified atmosphere of 5% CO2 at 37° C. Test compounds were added 24 hours post cell seeding. At the same time, a time zero, untreated cell plate was generated as a control. After a 72 hour incubation period, cells were fixed and stained with nuclear dye to allow visualization of nuclei.
(§2) Compounds were serially diluted 3.16-fold and assayed over 10 concentrations of inhibitor in a final assay concentration of 0.1% DMSO from the highest test concentration specified in the sample information chapter. Automated fluorescence microscopy was carried out using a GE Healthcare InCell Analyzer 1000, and images were collected with a 4× objective. Twelve bit tiff images were acquired using the InCell Analyzer 1000 3.2 and analyzed with Developer Toolbox 1.6 software.
(§3) Cell proliferation was measured by the signal intensity of the incorporated nuclear dye. The cell proliferation assay output is referred to as the relative cell count. To determine the cell proliferation end point, the cell proliferation data output is transformed to percent of control (POC) using the following formula: […]
(§4) Relative cell count IC50 (IC50) is the test compound's concentration that produces 50% of the cell proliferation inhibitory response or 50% cytotoxicity level. IC50 values were calculated using nonlinear regression to fit data to a sigmoidal 4 point, 4 parameter One-Site dose response model, where: y (fit)=A+[(B−A)/(1+((C/x)̂D))]. Curve-fitting, IC50 calculations and report generation were performed using a custom data reduction engine MathIQ based software (AIM). […] In these cases, the IC50 values were expressed as 40 μM and 10 μM, respectively (Table 2).

HMCB = details: Homo sapiens, 72 hour incubation
Description: as §1, §2, §3, §4

SW1116 = details: Homo sapiens, SW 1116, 72 hour incubation
Description: as §1, §2, §3, §4

Hs 578T = details: Homo sapiens, 72 hour incubation
Description: as §1, §2, §3, §4

NCI-H661 = details: Homo sapiens, 72 hour incubation
Description: as §1, §2, §3, §4

Capan-2 = details: Homo sapiens, 72 hour incubation
Description: as §1, §2, §3, §4

MC-IXC = details: Homo sapiens, 72 hour incubation
Description: as §1, §2, §3, §4

MDA-MB-436 = details: Homo sapiens, 72 hour incubation
Description: as §1, §2, §3, §4

SK-BR-3 = details: Homo sapiens, 72 hour incubation
Description: as §1, §2, §3, §4

Colo 201 = details: Homo sapiens, 72 hour incubation
Description: as §1, §2, §3, §4

KPL-1 = details: Homo sapiens, 72 hour incubation
Description: as §1, §2, §3, §4

MDA MB 231 = details: Homo sapiens, 72 hour incubation
Description: as §1, §2, §3, §4

22Rv1 = details: Homo sapiens, 72 hour incubation
Description: as §1, §2, §3, §4

BM-1604 = details: Homo sapiens, 72 hour incubation
Description: as §1, §2, §3, §4

TE 381.T = details: Homo sapiens, 72 hour incubation
Description: as §1, §2, §3, §4

CCRFCEM = details: Homo sapiens, CCRF-CEM, 72 hour incubation
Description: as §1, §2, §3, §4

RD = details: Homo sapiens, 72 hour incubation
Description: as §1, §2, §3, §4

SW48 = details: Homo sapiens, 72 hour incubation
Description: as §1, §2, §3, §4

J-RT3-T3-5 = details: Homo sapiens, 72 hour incubation
Description: as §1, §2, §3, §4

NCI-H747 = details: Homo sapiens, 72 hour incubation
Description: as §1, §2, §3, §4

BE(2)C = details: Homo sapiens, 72 hour incubation
Description: as §1, §2, §3, §4

RKOE6 = details: Homo sapiens, 72 hour incubation
Description: as §1, §2, §3, §4

NCI-H596 = details: Homo sapiens, 72 hour incubation
Description: as §1, §2, §3, §4

Hs 766T = details: Homo sapiens, Hs766T, 72 hour incubation
Description: as §1, §2, §3, §4

DMS114 = details: Homo sapiens, DMS-114, 72 hour incubation
Description: as §1, §2, §3, §4

SK-LMS-1 = details: Homo sapiens, 72 hour incubation
Description: as §1, §2, §3, §4

RPMI 8226 = details: Homo sapiens, 72 hour incubation
Description: as §1, §2, §3, §4

Thp1 = details: Homo sapiens, THP-1, 72 hour incubation
Description: as §1, §2, §3, §4

AGS = details: Homo sapiens, 72 hour incubation
Description: as §1, §2, §3, §4

SNU-1 = details: Homo sapiens, SNU1, 72 hour incubation
Description: as §1, §2, §3, §4

MHH-PREB-1 = details: Homo sapiens, 72 hour incubation
Description: as §1, §2, §3, §4

DK-MG = details: Homo sapiens, 72 hour incubation
Description: as §1, §2, §3, §4

DU145 = details: Homo sapiens, DU-145, 72 hour incubation
Description: as §1, §2, §3, §4

Hs 695T = details: Homo sapiens, 72 hour incubation
Description: as §1, §2, §3, §4

Wi38 = details: Homo sapiens, WI-38, 72 hour incubation
Description: as §1, §2, §3, §4

J82 = details: Homo sapiens, 72 hour incubation
Description: as §1, §2, §3, §4

Y79 = details: Homo sapiens, 72 hour incubation
Description: as §1, §2, §3, §4

RKO = details: Homo sapiens, 72 hour incubation
Description: as §1, §2, §3, §4

Colo 205 = details: Homo sapiens, 72 hour incubation
Description: as §1, §2, §3, §4

Q: For `CC1(C)CCC2(CC1)N[C@@H](C(=O)N[C@@H]1CC[C@@H](C(N)=O)OC1)[C@H](c1ccnc(Cl)c1F)[C@]21C(=O)Nc2cc(Cl)ccc21` [Compound B, (3′R,4′S,5′R)—N-[(3R,6S)-6-carbamoyltetrahydro-2H-pyran-3-yl]-6″-chloro-4′-(2-chloro-3-fluoropyridin-4-yl)-4,4-dimethyl-2″-oxo-1″,2″-dihydrodispiro[cyclohexane-1,2′-pyrrolidine-3′,3″-indole]-5′-carboxamide], which IC50 (KHOS-240S) is on record?
A: The IC50 was greater than 10 µM.

Q: And the IC50 (HMCB)?
A: The IC50 was 5.49 µM.

Q: And the IC50 (SW1116)?
A: The IC50 was greater than 10 µM.

Q: What about the IC50 (Hs 578T) of the same molecule?
A: Its IC50 is greater than 10 µM.

Q: What about the IC50 (NCI-H661) of the same molecule?
A: Its IC50 is 6.59 µM.

Q: What about the IC50 (Capan-2) of the same molecule?
A: The IC50 was greater than 10 µM.

Q: What about the IC50 (MC-IXC) of the same molecule?
A: The IC50 was 8.62 µM.

Q: What about the IC50 (MDA-MB-436) of the same molecule?
A: The IC50 was greater than 10 µM.

Q: And the IC50 (SK-BR-3)?
A: Its IC50 is greater than 10 µM.

Q: And the IC50 (Colo 201)?
A: The IC50 was 7.33 µM.

Q: And the IC50 (KPL-1)?
A: The IC50 was 0.031 µM.

Q: And the IC50 (MDA MB 231)?
A: Its IC50 is greater than 10 µM.

Q: What about the IC50 (22Rv1) of the same molecule?
A: Its IC50 is 0.109 µM.

Q: What about the IC50 (BM-1604) of the same molecule?
A: Its IC50 is greater than 10 µM.

Q: And the IC50 (TE 381.T)?
A: Its IC50 is 9.73 µM.

Q: What about the IC50 (CCRFCEM) of the same molecule?
A: Its IC50 is greater than 10 µM.

Q: What about the IC50 (RD) of the same molecule?
A: The IC50 was 7.2 µM.

Q: And the IC50 (SW48)?
A: The IC50 was 0.125 µM.

Q: What about the IC50 (J-RT3-T3-5) of the same molecule?
A: Its IC50 is greater than 10 µM.

Q: What about the IC50 (NCI-H747) of the same molecule?
A: The IC50 was greater than 10 µM.

Q: What about the IC50 (BE(2)C) of the same molecule?
A: The IC50 was 9.03 µM.

Q: What about the IC50 (RKOE6) of the same molecule?
A: Its IC50 is 7.59 µM.

Q: And the IC50 (NCI-H596)?
A: The IC50 was greater than 10 µM.

Q: What about the IC50 (Hs 766T) of the same molecule?
A: Its IC50 is greater than 10 µM.

Q: And the IC50 (DMS114)?
A: The IC50 was greater than 10 µM.

Q: And the IC50 (SK-LMS-1)?
A: The IC50 was greater than 10 µM.

Q: What about the IC50 (RPMI 8226) of the same molecule?
A: The IC50 was 0.065 µM.

Q: And the IC50 (Thp1)?
A: Its IC50 is greater than 10 µM.

Q: What about the IC50 (AGS) of the same molecule?
A: Its IC50 is 0.0116 µM.

Q: And the IC50 (SNU-1)?
A: The IC50 was 0.135 µM.

Q: And the IC50 (MHH-PREB-1)?
A: Its IC50 is 8.3 µM.

Q: What about the IC50 (DK-MG) of the same molecule?
A: Its IC50 is 0.0553 µM.

Q: And the IC50 (DU145)?
A: The IC50 was 7.91 µM.

Q: What about the IC50 (Hs 695T) of the same molecule?
A: Its IC50 is 0.174 µM.

Q: What about the IC50 (Wi38) of the same molecule?
A: Its IC50 is 0.0379 µM.

Q: And the IC50 (J82)?
A: Its IC50 is greater than 10 µM.

Q: What about the IC50 (Y79) of the same molecule?
A: Its IC50 is 0.159 µM.

Q: What about the IC50 (RKO) of the same molecule?
A: Its IC50 is 0.107 µM.

Q: And the IC50 (Colo 205)?
A: The IC50 was 9.48 µM.

Q: What does the source list for `CC[C@@H]1CNC2(CC2)CN1C(=O)[C@@H]1C[C@@H](F)CN1C(=O)C1=C(C(C)C)N2C(=N[C@@](C)(c3ccc(Cl)nc3)[C@H]2c2ccc(Cl)c(F)c2)S1` [Compound A, [(5R,6S)-5-(4-Chloro-3-fluorophenyl)-6-(6-chloropyridin-3-yl)-6-methyl-3-(propan-2-yl)-5,6-dihydroimidazo[2,1-b][1,3]thiazol-2-yl][(2S,4R)-2-{[(6R)-6-ethyl-4,7-diazaspiro[2.5]oct-7-yl]carbonyl}-4-fluoropyrrolidin-1-yl]methanone]?
A: IC50 (KHOS-240S): > 40 µM; IC50 (HMCB): > 40 µM; IC50 (SW1116): > 40 µM; IC50 (Hs 578T): > 40 µM; IC50 (NCI-H661): > 40 µM; IC50 (Capan-2): > 40 µM; IC50 (MC-IXC): 22.7 µM; IC50 (MDA-MB-436): > 40 µM; IC50 (SK-BR-3): 27.7 µM; IC50 (Colo 201): 34.6 µM; IC50 (KPL-1): 0.455 µM; IC50 (MDA MB 231): > 40 µM; IC50 (22Rv1): 1.31 µM; IC50 (BM-1604): > 40 µM; IC50 (TE 381.T): 37.3 µM; IC50 (CCRFCEM): > 40 µM; IC50 (RD): > 40 µM; IC50 (SW48): 1.09 µM; IC50 (J-RT3-T3-5): > 40 µM; IC50 (NCI-H747): > 40 µM; IC50 (BE(2)C): 35.3 µM; IC50 (RKOE6): 38.2 µM; IC50 (NCI-H596): > 40 µM; IC50 (Hs 766T): > 40 µM; IC50 (DMS114): > 40 µM; IC50 (SK-LMS-1): > 40 µM; IC50 (RPMI 8226): > 40 µM; IC50 (Thp1): > 40 µM; IC50 (AGS): 0.139 µM; IC50 (SNU-1): 0.412 µM; IC50 (MHH-PREB-1): > 40 µM; IC50 (DK-MG): 0.645 µM; IC50 (DU145): > 40 µM; IC50 (Hs 695T): 1.28 µM; IC50 (Wi38): 0.171 µM; IC50 (J82): > 40 µM; IC50 (Y79): 1.05 µM; IC50 (RKO): 0.654 µM; IC50 (Colo 205): 36.7 µM
